Legend:
TNFα expression in MSC = assay: RNA analysis of pro-inflammatory cytokine TNFα in exposed MSC; format: cell-based, human; details: 48 hours
Description: (§1) A single vial of human bone marrow-derived MSC was expanded and seeded using standard growth medium. At 95-99% confluency, cells were thoroughly washed with phosphate-buffered saline (PBS) and exposed to media containing treprostinil at doses ranging from 250 μg/mL to 0.004 μg/mL. After 48 hours of culture, cells were photographed and assessed for treatment-induced changes in morphology.
(§2) Cells exposed to treprostinil ranging from 250 μg/mL-0.004 μg/mL as described in Example 1 were harvested. RNA of the cells was extracted and then analyzed for pro- and anti-inflammatory cytokines. Cytokines, or small proteins involved in both internal and secreted cell signaling, have been identified to play a role in the inflammatory pathogenesis of PAH (Groth et al., Respiratory Research, 15:47 (2014)).

iNOS expression in MSC = assay: RNA analysis of immunosuppressive factor iNOS in exposed MSC; format: cell-based, human; details: 48 hours
Description: as §1
(§3) RNA from MSCs exposed to treprostinil of from 250 μg/mL to 0.004 μg/mL was re-analyzed for several other anti-inflammatory factors.

IDO1 expression in MSC = assay: RNA analysis of immunosuppressive factor IDO1 in exposed MSC; format: cell-based, human; details: 48 hours
Description: as §1, §3

IL10 expression in MSC = assay: RNA analysis of anti-inflammatory cytokine IL10 in exposed MSC; format: cell-based, human; details: 48 hours
Description: as §1, §2

IL13 expression in MSC = assay: RNA analysis of anti-inflammatory cytokine IL13 in exposed MSC; format: cell-based, human; details: 48 hours
Description: as §1, §2

TGFβ expression in MSC = assay: RNA analysis of immunosuppressive factor TGFβ in exposed MSC; format: cell-based, human; details: 48 hours
Description: as §1, §3

[1] = system: human bone marrow-derived MSC; assay: MSC morphology after 48 hours exposure (cytotoxic effect); format: cell-based; details: 48 hours of culture
Description: as §1

HLA expression in MSC = assay: RNA analysis of immunosuppressive factor HLA in exposed MSC; format: cell-based, human; details: 48 hours
Description: as §1, §3

CCCCC[C@H](O)CC[C@@H]1[C@H]2Cc3cccc(OCC(=O)O)c3C[C@H]2C[C@H]1O [treprostinil]
lowering of TNFα expression compared to control (TNFα expression in MSC; 0.3 μg/mL to 83.3 μg/mL): up to 4.7 fold
TNFα over unexposed control (TNFα expression in MSC; 9.3 μg/mL): decreased
iNOS over unexposed control (iNOS expression in MSC; 9.3 μg/mL): increased
iNOS over control (iNOS expression in MSC; increasing doses): robust increase
IDO over unexposed control (IDO1 expression in MSC; 9.3 μg/mL): increased
IDO1 over control (IDO1 expression in MSC; increasing doses): robust increase
increase of IL10 expression in MSC (IL10 expression in MSC; 9.3 μg/mL): 5.4 fold
IL10 signaling over control (IL10 expression in MSC; increasing doses): increase
IL13 over unexposed control (IL13 expression in MSC; 9.3 μg/mL): increased
increase of IL13 expression in MSC (IL13 expression in MSC; 27.8 μg/mL): 8.8 fold
IL13 signaling over control (IL13 expression in MSC; increasing doses): increase
TGFβ over unexposed control (TGFβ expression in MSC; 9.3 μg/mL): increased
TGFβ over control (TGFβ expression in MSC; increasing doses): robust increase
MSC morphology (cytotoxic effect) ([1]; 83.3 μg/mL or lower): did not cause morphological changes associated with cell death
MSC morphology (cytotoxic effect) ([1]; 250 μg/mL): rounded up and detached
HLA over unexposed control (HLA expression in MSC; 9.3 μg/mL): increased
HLA over control (HLA expression in MSC; increasing doses): robust increase

Source: patent US11571444B2, “Enhancement of MSC immunomodulatory properties by treprostinil” (United Therapeutics Corporation, priority 2016, dated 2023)
